Reference: ChEMBL document CHEMBL1201862, “PubChem BioAssay data set” (2004)
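Tested at 5 concentrations; 48 h exposure; 96-well plates; endpoints linearly interpolated, else capped at highest concentration. At the GI50, growth is halved.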 Activity calls are given as the source filed them. No stated cut-off is given here; in the data, active = GI50 up to about 1.1 µM and inactive = higher.

Assays:
Test in all cases: NCI tumour cell line growth inhibition, 48 h
HOP-92 = system: HOP-92
T47D = system: T47D
UACC-257 = system: UACC-257
K562 = system: K562
UACC-62 = system: UACC-62
IGROV-1 = system: IGROV-1
SK-OV-3 = system: SK-OV-3
SF-539 = system: SF-539
HL-60 = system: HL-60
HCT-15 = system: HCT-15
786-0 = system: 786-0
NCI-H226 = system: NCI-H226
SNB-19 = system: SNB-19
SW-620 = system: SW-620
Malme-3M = system: Malme-3M
SN12C = system: SN12C
Hs-578T = system: Hs-578T
PC-3 = system: PC-3
UO-31 = system: UO-31
RPMI-8226 = system: RPMI-8226

Structure (SMILES)	GI50 (HOP-92)	GI50 (T47D)	GI50 (UACC-257)	GI50 (K562)	GI50 (UACC-62)	GI50 (IGROV-1)	GI50 (SK-OV-3)	GI50 (SF-539)	GI50 (HL-60)	GI50 (HCT-15)	GI50 (786-0)	GI50 (NCI-H226)	GI50 (SNB-19)	GI50 (SW-620)	GI50 (Malme-3M)	GI50 (SN12C)	GI50 (Hs-578T)	GI50 (PC-3)	GI50 (UO-31)	GI50 (RPMI-8226)
O=C1OC(C(O)C(O)C(O)CO)C(O)C1O (stereo not given)	> 100 µM (inactive)	> 100 µM (inactive)	> 100 µM (inactive)	> 100 µM (inactive)	> 100 µM (inactive)	> 100 µM (inactive)	> 100 µM (inactive)	> 100 µM (inactive)	> 100 µM (inactive)	> 100 µM	> 100 µM (inactive)	> 100 µM (inactive)	> 100 µM (inactive)	> 100 µM (inactive)	> 100 µM (inactive)	> 100 µM (inactive)	> 100 µM (inactive)	> 100 µM (inactive)	> 100 µM (inactive)	> 100 µM (inactive)
C/C(=N\N=C(/S)N1CC2CCC(CC2)C1)c1cccc[n+]1[O-]	13.2 µM (inactive)	22.6 µM (inactive)	7.59 µM (inactive)	0.228 µM (active)	7.31 µM (inactive)	17.9 µM (inactive)	35.8 µM (inactive)	5.85 µM (inactive)	0.23 µM (active)	1.8 µM	6.9 µM (inactive)	3.41 µM (inactive)	9.08 µM (inactive)	4.35 µM (inactive)	12.5 µM (inactive)	7.67 µM (inactive)	18.4 µM (inactive)	11.7 µM (inactive)	3.12 µM (inactive)	0.381 µM (active)
Cc1ccc(S(=O)(=O)Oc2cc(S(=O)(=O)O)cc3cc(S(=O)(=O)O)cc(N)c23)cc1	22 µM (inactive)	> 100 µM (inactive)	> 100 µM (inactive)	> 100 µM (inactive)	> 100 µM (inactive)	> 100 µM (inactive)	> 100 µM (inactive)	> 100 µM (inactive)	> 100 µM (inactive)	> 100 µM	> 100 µM (inactive)	> 100 µM (inactive)	> 100 µM (inactive)	> 100 µM (inactive)	> 100 µM (inactive)	> 100 µM (inactive)	> 100 µM (inactive)	> 100 µM (inactive)	41.1 µM (inactive)	> 100 µM (inactive)
CCOC1SC(SC)=NN1C(=O)C(OC(C)=O)C(OC(C)=O)C(OC(C)=O)C(OC(C)=O)C(=O)N1N=C(SC)SC1OCC (stereo not given)	38.2 µM (inactive)	> 100 µM (inactive)	> 100 µM (inactive)	> 100 µM (inactive)	> 100 µM (inactive)	> 100 µM (inactive)	> 100 µM (inactive)	69.7 µM (inactive)	> 100 µM (inactive)	> 100 µM	62.1 µM (inactive)	> 100 µM (inactive)	> 100 µM (inactive)	> 100 µM (inactive)	> 100 µM (inactive)	> 100 µM (inactive)	35.2 µM (inactive)	> 100 µM (inactive)	> 100 µM (inactive)	> 100 µM (inactive)
COC(=O)C1SC[C@H]2C(=O)N(c3ccccc3)C(=O)N12 (stereo not given in full)	85.3 µM (inactive)	> 100 µM (inactive)	> 100 µM (inactive)	> 100 µM (inactive)	> 100 µM (inactive)	> 100 µM (inactive)	> 100 µM (inactive)	> 100 µM (inactive)	> 100 µM (inactive)	> 100 µM	> 100 µM (inactive)	> 100 µM (inactive)	> 100 µM (inactive)	> 100 µM (inactive)	> 100 µM (inactive)	> 100 µM (inactive)	> 100 µM (inactive)	> 100 µM (inactive)	> 100 µM (inactive)	> 100 µM (inactive)
O=C1c2ccccc2C(=O)c2c1ccc1nc3c(nc21)-c1c2ccccc2cc2cccc-3c12	> 73.8 µM (inactive)	33.6 µM (inactive)	> 100 µM (inactive)	> 29.6 µM (inactive)	26.5 µM (inactive)	9.16 µM (inactive)	41.1 µM (inactive)	21.4 µM (inactive)	10 µM (inactive)	29.4 µM	21.5 µM (inactive)	> 68.9 µM (inactive)	38.4 µM (inactive)	> 63.1 µM (inactive)	51.9 µM (inactive)	35.8 µM (inactive)	13.7 µM (inactive)	41.9 µM (inactive)	17.6 µM (inactive)	39.5 µM (inactive)
C[N+]12CCCCC1C(CN1C(=O)Cc3c4ccccc4c(c4ccccc34)CC1=O)CCC2 (stereo not given)	> 100 µM (inactive)	> 100 µM (inactive)	> 100 µM (inactive)	> 100 µM (inactive)	> 100 µM (inactive)	> 100 µM (inactive)	> 100 µM (inactive)	> 100 µM (inactive)	> 100 µM (inactive)	> 100 µM	> 100 µM (inactive)	> 100 µM (inactive)	> 100 µM (inactive)	> 100 µM (inactive)	> 100 µM (inactive)	> 100 µM (inactive)	> 100 µM (inactive)	> 100 µM (inactive)	> 100 µM (inactive)	> 100 µM (inactive)
CCC/C(Cl)=N\OC(=O)Nc1ccc(Br)cc1	3.33 µM (inactive)	7.24 µM (inactive)	13.5 µM (inactive)	1.94 µM (inactive)	18.9 µM (inactive)	12.8 µM (inactive)	16.8 µM (inactive)	17.5 µM (inactive)	1.99 µM (inactive)	2.56 µM	7.24 µM (inactive)	21.6 µM (inactive)	29.5 µM (inactive)	2.36 µM (inactive)	5.73 µM (inactive)	14 µM (inactive)	21.1 µM (inactive)	14.7 µM (inactive)	13 µM (inactive)	2.96 µM (inactive)
CC1=NN(c2ccccc2)C(=O)C1/N=N/c1ccc([As](=O)(O)O)c(O)c1 (stereo not given)	> 100 µM (inactive)	60.8 µM (inactive)	> 100 µM (inactive)	> 100 µM (inactive)	> 100 µM (inactive)	> 100 µM (inactive)	> 100 µM (inactive)	> 100 µM (inactive)	87.1 µM (inactive)	> 100 µM	> 100 µM (inactive)	> 100 µM (inactive)	> 100 µM (inactive)	> 100 µM (inactive)	> 100 µM (inactive)	> 100 µM (inactive)	> 100 µM (inactive)	> 100 µM (inactive)	> 100 µM (inactive)	57 µM (inactive)
Cc1ccc(-c2cc(O)c3nc4ccccc4n3c2)cc1	> 100 µM (inactive)	> 100 µM (inactive)	> 100 µM (inactive)	> 100 µM (inactive)	> 100 µM (inactive)	> 100 µM (inactive)	> 100 µM (inactive)	> 100 µM (inactive)	> 100 µM (inactive)	> 100 µM	> 100 µM (inactive)	> 100 µM (inactive)	> 100 µM (inactive)	> 100 µM (inactive)	> 100 µM (inactive)	> 100 µM (inactive)	> 100 µM (inactive)	> 100 µM (inactive)	> 100 µM (inactive)	> 100 µM (inactive)
O=C1N/C(=N/N=C/c2ccccc2)N/C1=C\c1cccs1	15.8 µM (inactive)	28.2 µM (inactive)	30.5 µM (inactive)	12.2 µM (inactive)	20.1 µM (inactive)	14.5 µM (inactive)	18.6 µM (inactive)	10.4 µM (inactive)	12.3 µM (inactive)	17.9 µM	18.5 µM (inactive)	10.6 µM (inactive)	21.9 µM (inactive)	11.7 µM (inactive)	8.99 µM (inactive)	19.1 µM (inactive)	2.77 µM (inactive)	10 µM (inactive)	21.8 µM (inactive)	16.8 µM (inactive)
CC(/C=N/N(C)C1=NCCCN1)=N/N(C)C1=NCCCN1	> 100 µM (inactive)	> 100 µM (inactive)	> 100 µM (inactive)	> 100 µM (inactive)	> 100 µM (inactive)	> 100 µM (inactive)	> 100 µM (inactive)	> 100 µM (inactive)	> 100 µM (inactive)	> 100 µM	> 100 µM (inactive)	> 100 µM (inactive)	> 100 µM (inactive)	> 100 µM (inactive)	> 100 µM (inactive)	> 100 µM (inactive)	> 100 µM (inactive)	> 100 µM (inactive)	> 100 µM (inactive)	> 100 µM (inactive)
CC(=O)OCC12C(OC(C)=O)C(=O)C3C(OC(C)=O)C14OC3(C)COC(=O)c1cccnc1C(C)C(C)C(=O)OC(C(OC(C)=O)C2OC(C)=O)C4(C)O (stereo not given)	> 100 µM (inactive)	> 100 µM (inactive)	> 100 µM (inactive)	> 100 µM (inactive)	> 100 µM (inactive)	> 100 µM (inactive)	> 100 µM (inactive)	> 100 µM (inactive)	> 100 µM (inactive)	> 100 µM	> 100 µM (inactive)	> 100 µM (inactive)	> 100 µM (inactive)	> 100 µM (inactive)	> 100 µM (inactive)	> 100 µM (inactive)	> 100 µM (inactive)	> 100 µM (inactive)	> 100 µM (inactive)	> 100 µM (inactive)
Nc1nc(=O)c2c([nH]1)NCC(CCNc1ccc(C(=O)O)cc1)N2 (stereo not given)	> 100 µM (inactive)	> 100 µM (inactive)	> 100 µM (inactive)	> 100 µM (inactive)	> 100 µM (inactive)	> 100 µM (inactive)	> 100 µM (inactive)	> 100 µM (inactive)	78 µM (inactive)	> 100 µM	> 100 µM (inactive)	> 100 µM (inactive)	> 100 µM (inactive)	> 100 µM (inactive)	> 100 µM (inactive)	> 100 µM (inactive)	> 100 µM (inactive)	> 100 µM (inactive)	> 100 µM (inactive)	> 100 µM (inactive)
